{"source": "PubChem BioAssay AID1963847", "about": "(Molecular Pharmacology Branch, DTP, NCI, 2024);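 note: spheroids exposed to compounds for one week before readout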;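 for viability, T/C: luminescence used as stand-in measure of viable cells; 100% = DMSO vehicle control viability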", "test_system": "415267-285-R-J2-PDC complex spheroid viability", "experiment": "Anticancer human tumor 415267-285-R-J2-PDC patient-derived breast carcinoma cell line growth inhibition [POLQ]", "settings": "for IC50: curve of first compound; for viability, T/C: stronger effect = lower value", "description": "Multicellular complex tumor spheroid response to Polymerase (POL) inhibitors (novobiocin, ART-558, RP6685) in combination with a variety of drugs and investigational agents in selected tumor cell lines\nThe POL inhibitors (novobiocin, ART-558, and RP6685) were evaluated both individually and in combination with standard of care and investigational anticancer small molecules within a complex spheroid model of solid tumors. . Complex spheroids include a stromal component modeled by human endothelial cells (HUVEC) and fibroblasts modeled by human mesenchymal stem cells (MSCs). The concentration ranges selected for each drug and investigational agent were based upon clinically achievable concentrations if the clinical Cmax of the agent was known.\nCompounds. The drugs and investigational agents: novobiocin (NSC847541), ART-558 (NSC835418), RP-6685 (NSC848927), peposertib (NSC802822), ceralasertib (NSC780249), elimusertib (NSC800525), camonsertib (NSC841442), AZD-1390 (NSC803789), olaparib (NSC753686), talazoparib (NSC767125), rucaparib (NSC756644), sotorasib (NSC818433), MRTX-1133 (NSC836407), SN-38 (NSC673596), topotecan (NSC609699), epotoside (NSC141540), doxorubicin (NSC123127), gemcitabine (NSC613327), 5-fluorouracil (NSC19893), paclitaxel (NSC125973), vemurafenib (NSC761431), MSA-2 (NSC828583), SN-011 (NSC837082), adavosertib (NSC754352), prexasertib (NSC758257), carboplatin (NSC241240) and oxaliplatin (NSC266046), were obtained from the National Cancer Institute (NCI) Developmental Therapeutics Program Chemical Repository (21). The FDA-approved anticancer drug set is available from the Developmental Therapeutics Program at https://dtp.cancer.gov/organization/dscb/obtaining/. […] The stock solutions were prepared in dimethyl sulfoxide (DMSO, Sigma-Aldrich, St. Louis, MO, cat. D2650), except for the platinum compounds which were prepared in saline (Quality Biological, Gaithersburg, MD, cat. 114-055-101), at 800-fold the tested concentration and stored at -70 degrees C prior to their use. All drugs and investigational agents were tested over a range starting from a high concentration at or near the clinical Cmax and decreasing in half-log increments. If the clinical Cmax for an agent had not been determined, the highest concentration tested was 10 microM, except for SN-38, which was tested at a high concentration of 1 microM.\nCell Culture. All cells were maintained in an incubator at 37 degrees C and 5% CO2 with 95% humidity. The PDC lines were cultured according to standard operating procedures established by the NCI PDMR (https://pdmr.cancer.gov). Table 3 of the manuscript, lists the cell lines along with the number of the three cell types plated to form the mct-spheroids and media for tumor cell growth. After thawing, all PDC lines, except 997537-175-T-J1-PDC and 415267-285-R-J2-PDC, were cultured in Matrigel-coated flasks prepared with a working solution of 1X Ham's F-12 nutrient mix, without supplementation (Thermo Fisher Scientific, cat. 11765054), 100 U/mL penicillin-streptomycin (Thermo Fisher Scientific, cat. 15140122), and 2.5% Matrigel (Corning Inc., Corning, NY, cat. 354248) for the first three passages. The two PDC lines 997537-175-T-J1-PDC and 415267-285-R-J2-PDC were cultured on uncoated flasks. The 857933-349-R-J2-PDC line was cultured in 6C/Colon 1B media containing advanced DMEM/F-12 (Thermo Fisher Scientific, cat. 12634028), 10 mM HEPES (Thermo Fisher Scientific, cat. 15630080), 1X GlutaMAX supplement (Thermo Fisher Scientific, cat. 35050061), 0.1 mg/mL primocin (InvivoGen, San Diego, CA, cat. ant-pm-2), 10% defined fetal bovine serum, heat inactivated (HyClone Laboratories Inc., Logan, UT, cat. SH30070.03HI), 50% L-WRN conditioned media (ATCC, cat. CRL-3276), 1.25 mM N-Acetyl-L-cysteine (Sigma-Aldrich, cat. A9165), 10 mM nicotinamide (Sigma-Aldrich, cat. N0636), 1X B-27 supplement (Thermo Fisher Scientific, cat. 17504044), 1X N-2 supplement (Thermo Fisher Scientific, cat. […]", "data": [{"smiles": "CC[C@@]1(O)C(=O)OCc2c1cc1n(c2=O)Cc2cc3c(CN(C)C)c(O)ccc3nc2-1", "note": "+ Nc1ccc(C#CCN(C(=O)Cc2ncc(C(F)(F)F)cc2C(F)(F)F)c2ccc(F)cc2)nn1", "values": [{"measurement": "IC50", "setting": "second compound 0.0316 µM", "value": 24.2, "unit": "nM"}, {"measurement": "IC50", "setting": "second compound 0.1 µM", "value": 23.2, "unit": "nM"}, {"measurement": "IC50", "setting": "second compound 0.316 µM", "value": 25.8, "unit": "nM"}, {"measurement": "IC50", "setting": "second compound 1 µM", "value": 24.3, "unit": "nM"}, {"measurement": "IC50", "setting": "second compound 3.16 µM", "value": 22.5, "unit": "nM"}, {"measurement": "IC50", "setting": "second compound 10 µM", "value": 23.8, "unit": "nM"}, {"measurement": "viability, T/C", "setting": "second compound 0.0316 µM, first compound 0.000316 µM", "value": 102, "unit": "%"}, {"measurement": "viability, T/C", "setting": "second compound 0.0316 µM, first compound 0.001 µM", "value": 101, "unit": "%"}, {"measurement": "viability, T/C", "setting": "second compound 0.0316 µM, first compound 0.00316 µM", "value": 98.6, "unit": "%"}, {"measurement": "viability, T/C", "setting": "second compound 0.0316 µM, first compound 0.01 µM", "value": 93.3, "unit": "%"}, {"measurement": "viability, T/C", "setting": "second compound 0.0316 µM, first compound 0.0316 µM", "value": 37, "unit": "%"}, {"measurement": "viability, T/C", "setting": "second compound 0.0316 µM, first compound 0.1 µM", "value": 8.63, "unit": "%"}, {"measurement": "viability, T/C", "setting": "second compound 0.1 µM, first compound 0.000316 µM", "value": 116, "unit": "%"}, {"measurement": "viability, T/C", "setting": "second compound 0.1 µM, first compound 0.001 µM", "value": 102, "unit": "%"}, {"measurement": "viability, T/C", "setting": "second compound 0.1 µM, first compound 0.00316 µM", "value": 96.8, "unit": "%"}, {"measurement": "viability, T/C", "setting": "second compound 0.1 µM, first compound 0.01 µM", "value": 98.2, "unit": "%"}, {"measurement": "viability, T/C", "setting": "second compound 0.1 µM, first compound 0.0316 µM", "value": 32.5, "unit": "%"}, {"measurement": "viability, T/C", "setting": "second compound 0.1 µM, first compound 0.1 µM", "value": 8.01, "unit": "%"}, {"measurement": "viability, T/C", "setting": "second compound 0.316 µM, first compound 0.000316 µM", "value": 115, "unit": "%"}, {"measurement": "viability, T/C", "setting": "second compound 0.316 µM, first compound 0.001 µM", "value": 98.2, "unit": "%"}, {"measurement": "viability, T/C", "setting": "second compound 0.316 µM, first compound 0.00316 µM", "value": 94.2, "unit": "%"}, {"measurement": "viability, T/C", "setting": "second compound 0.316 µM, first compound 0.01 µM", "value": 105, "unit": "%"}, {"measurement": "viability, T/C", "setting": "second compound 0.316 µM, first compound 0.0316 µM", "value": 38.5, "unit": "%"}, {"measurement": "viability, T/C", "setting": "second compound 0.316 µM, first compound 0.1 µM", "value": 5.29, "unit": "%"}, {"measurement": "viability, T/C", "setting": "second compound 1 µM, first compound 0.000316 µM", "value": 120, "unit": "%"}, {"measurement": "viability, T/C", "setting": "second compound 1 µM, first compound 0.001 µM", "value": 96.2, "unit": "%"}, {"measurement": "viability, T/C", "setting": "second compound 1 µM, first compound 0.00316 µM", "value": 98.8, "unit": "%"}, {"measurement": "viability, T/C", "setting": "second compound 1 µM, first compound 0.01 µM", "value": 101, "unit": "%"}, {"measurement": "viability, T/C", "setting": "second compound 1 µM, first compound 0.0316 µM", "value": 33.4, "unit": "%"}, {"measurement": "viability, T/C", "setting": "second compound 1 µM, first compound 0.1 µM", "value": 7.54, "unit": "%"}, {"measurement": "viability, T/C", "setting": "second compound 3.16 µM, first compound 0.000316 µM", "value": 107, "unit": "%"}, {"measurement": "viability, T/C", "setting": "second compound 3.16 µM, first compound 0.001 µM", "value": 103, "unit": "%"}, {"measurement": "viability, T/C", "setting": "second compound 3.16 µM, first compound 0.00316 µM", "value": 97.6, "unit": "%"}, {"measurement": "viability, T/C", "setting": "second compound 3.16 µM, first compound 0.01 µM", "value": 115, "unit": "%"}, {"measurement": "viability, T/C", "setting": "second compound 3.16 µM, first compound 0.0316 µM", "value": 26.7, "unit": "%"}, {"measurement": "viability, T/C", "setting": "second compound 3.16 µM, first compound 0.1 µM", "value": 9.06, "unit": "%"}, {"measurement": "viability, T/C", "setting": "second compound 10 µM, first compound 0.000316 µM", "value": 113, "unit": "%"}, {"measurement": "viability, T/C", "setting": "second compound 10 µM, first compound 0.001 µM", "value": 106, "unit": "%"}, {"measurement": "viability, T/C", "setting": "second compound 10 µM, first compound 0.00316 µM", "value": 98.9, "unit": "%"}, {"measurement": "viability, T/C", "setting": "second compound 10 µM, first compound 0.01 µM", "value": 104, "unit": "%"}, {"measurement": "viability, T/C", "setting": "second compound 10 µM, first compound 0.0316 µM", "value": 32.2, "unit": "%"}, {"measurement": "viability, T/C", "setting": "second compound 10 µM, first compound 0.1 µM", "value": 8.26, "unit": "%"}]}]}
